Assay results reported in US20120207704A1 (priority 2011, published 2012).

Tested on: DU-145 cells
Assay type: cell-based, human

C=C1[C@@H](C)[C@H]2[C@H](Cc3ccccc3)NC(=O)[C@]23[C@H](OC(C)=O)/C=C/[C@@](C)(O)C(=O)[C@@H](C)C/C=C/[C@H]3[C@@H]1O [Cytochalasin-D]
Effect on cell migration: did not migrate | Relative Wound Density at 24 Hours, Mean: 3.3 ± 0.2 | Relative Wound Density at 24 Hours, Percent Relative to Media: 4%
